# From patent US9198906B2, “Ketoconazole enantiomer in humans” (Cortendo AB (publ), priority 2006, dated 2015)
# What was measured:
# [1] = tested on: patients with type 2 diabetes mellitus; assay: Phase 2a trial, fructosamine (glycemic control); type: in vivo, human
# Method: (§1) Five (5) dose groups were studied.
# (§2) The first dose of the study drug was given on Day 1 at 2200 h. Activity markers measured on Day 1 prior to administration of the drug (“Visit 1”). The last dose of study drug was given on Day 14 at 2200 h and activity markers measured on Day 15 (“Visit 3”). Measurements of safety markers were taken on Visits 1 and 3, as well as Visit 2 (Day 8) and Visit 4 (Day 28).
# Fructosamine levels were measured at baseline and after two weeks of therapy (see Table 4 and FIGS. 1 and 2). […] Fructosamine levels reflect blood glucose levels over the preceding 2-3 weeks.
# [2] = tested on: patients with type 2 diabetes mellitus; assay: Phase 2a trial, total cholesterol; type: in vivo, human
# Method: as §1, §2
# [3] = tested on: patients with type 2 diabetes mellitus; assay: Phase 2a trial, C-reactive protein (marker of inflammation); type: in vivo, human
# Method: as §1, §2
# [4] = tested on: patients with type 2 diabetes mellitus; assay: Phase 2a trial, continuous blood pressure monitoring; type: in vivo, human; conditions: Visits 1 and 3, 14 daily doses
# Method: as §1
# Continuous blood pressure monitoring was performed during Visits 1 and 3.
# [5] = tested on: patients with type 2 diabetes mellitus; assay: Phase 2a trial, HbA1c (glycemic control); type: in vivo, human
# Method: as §1, §2
# This test measure levels of glycated hemoglobin and reflects the average blood glucose level for a subject over the preceding 3 months (approximately). Elevated levels are common in diabetics. Lowering the hemoglobin A1c number can delay or prevent the development of serious eye, kidney, and nerve disease in individuals with diabetes.
# [6] = tested on: patients with type 2 diabetes mellitus; assay: Phase 2a trial, LDL cholesterol; type: in vivo, human
# Method: as §1, §2
# [7] = tested on: patients with type 2 diabetes mellitus; assay: Phase 2a trial, liver function tests (AST/ALT/AP); conditions: Subject 04-016, KTZ 400 mg
# Method: as §2
# healthy volunteers = conditions: published reports, e.g. Morganroth et al. 1997; cited from earlier work
# [8] = 400 mg po QD group, Visit 1 (baseline, before first dose)
# [9] = 400 mg po QD, 14 daily doses, Visit 3 (Day 15)
structure (smiles),measurement,setting,value
"CC(=O)N1CCN(c2ccc(OCC3COC(Cn4ccnc4)(c4ccc(Cl)cc4Cl)O3)cc2)CC1 (racemic) [KTZ, 1-acetyl-4-[4-[[2-(2,4-dichlorophenyl)-2-[(1H-imidazol-1-yl)-methyl]-1,3-dioxolan-4-yl]methoxy]phenyl]piperazine, reference compound]",Fructosamine Visit 1 mean,[1]; [8],272.57 µmol/L
same,Fructosamine Change vs Baseline mean,"[1]; 400 mg po QD, 14 daily doses",-2.29 µmol/L
same,Fructosamine Visit 3 mean,[1]; [9],270.29 µmol/L
same,Total cholesterol Visit 1 mean,[2]; [8],198.14 mg/dL
same,Total cholesterol Change mean,"[2]; 400 mg po QD, 14 daily doses",-33.57 mg/dL
same,Total cholesterol Mean % change,"[2]; 400 mg po QD, 14 daily doses",−15.46%
same,Total cholesterol Visit 3 mean,[2]; [9],164.57 mg/dL
same,C-Reactive Protein (CRP) Visit 1 mean,[3]; [8],2.28 mg/L
same,CRP Mean % change vs baseline,"[3]; 400 mg po QD, 14 daily doses",9.78%
same,C-Reactive Protein (CRP) Visit 3 mean,[3]; [9],2.22 mg/L
same,effect on CRP,[3]; 14 daily doses,did not reduce CRP levels and actually led to an increase in CRP
same,effect on blood pressure readings,[4],no reductions
same,Visit 1 HbA1c mean,"[5]; 400 mg po QD group, Visit 1 (Day 1, before first dose, baseline)",8.05%
same,HbA1c Change vs Baseline mean,"[5]; 400 mg po QD, 14 daily doses",−0.37%
same,Visit 3 HbA1c mean,[5]; [9],7.68%
same,LDL cholesterol Visit 1 mean,[6]; [8],118.71 mg/dL
same,LDL cholesterol Mean % change,"[6]; 400 mg po QD, 14 daily doses",−24.73%
same,LDL cholesterol change mean,"[6]; 400 mg po QD, 14 daily doses",-30.43 mg/dL
same,LDL cholesterol Visit 3 mean,[6]; [9],88.29 mg/dL
same,ALT,[7]; Screening Visit,28 u/L
same,AP,[7]; Screening Visit,110 u/L
same,AST,[7]; Screening Visit,33 u/L
same,ALT,[7]; Visit 1 (pre-1st dose),37 u/L
same,AP,[7]; Visit 1 (pre-1st dose),109 u/L
same,AST,[7]; Visit 1 (pre-1st dose),53 u/L
same,ALT,[7]; Visit 2,19 u/L
same,AP,[7]; Visit 2,137 u/L
same,AST,[7]; Visit 2,36 u/L
same,ALT,[7]; Visit 3 (last dose),18 u/L
same,AP,[7]; Visit 3 (last dose),103 u/L
same,AST,[7]; Visit 3 (last dose),31 u/L
same,effect on QTc interval,healthy volunteers,does not increase
